# Laboratory results: patent US8754209B2, “Indazole derivatives or pharmaceutically acceptable salts thereof as protein kinase inhibitors for proliferative diseases treatment, and a pharmaceutical composition containing the same as an active ingredient” (Korea Institute of Science and Technology, priority 2009, dated 2014)
# Molecular target: B-Raf-V600E (Homo sapiens, UniProt P15056, V600E)
# Experiment: B-Raf kinase enzyme assay (MEK1/Erk2 cascade, MBP phosphorylation, 32P)
# Assay type: biochemical
# Conditions: read-out: b-raf-V600Ekinase inhibitory activity (IC50)
# Experimental: <1-1> Activation of MAP Kinase 2/Erk2 by B-raf
# 10 μl magnesium chloride/ATP solution (500 uM ATP, 75 mM magnesium chloride) was seeded in eppendorf tube. 2.5 μl B-Raf-V600E was seed (final conc. 1 ng) in eppendorf tube and treated with 1.6 μl deactivated MEK1 (final conc. 0.4 μg). The mixture was treated with 4 μl deactivated MAP kinase 2/Erk2 (final conc. 1.0 ug). And the mixture was treated with 1 μl example solution (10 mM) dissolved in dimethyl sulfoxide which was orderly diluted. Then, assay dilution buffer I (ADBI I) was added thereto (final vol. 38 μl) to make the final volume of 38 μl, and made it reacted at 30° C. for 30 min. 5 μl of resulting solution was used for the following experiment.
# <1-2> Phosphorylation of Myelin basic protein (MBP)
# 5 μl of the above resulting solution was treated with 10 μl assay dilution buffer, and then treated with 10 μl Myelin basic protein (MBP, 2 mg/Ml). The mixture solution was treated with 10 μl of diluted (1/10) [γ^32P] ATP (100 uCi/vial) which is diluted at 30° C. for 10 min. 25 μl of the mixture solution was spotted onto a P81 paper, and the paper was washed four times with 0.75% phosphoric acid for 10 min and once with acetone for 5 min in scintillation vial. After 5 Ml of scintillation cocktail solution was added in the scintillation vial, signals were analyzed by scintillation counter.
# Sequence of B-Raf-V600E (P15056 whole entry V600E): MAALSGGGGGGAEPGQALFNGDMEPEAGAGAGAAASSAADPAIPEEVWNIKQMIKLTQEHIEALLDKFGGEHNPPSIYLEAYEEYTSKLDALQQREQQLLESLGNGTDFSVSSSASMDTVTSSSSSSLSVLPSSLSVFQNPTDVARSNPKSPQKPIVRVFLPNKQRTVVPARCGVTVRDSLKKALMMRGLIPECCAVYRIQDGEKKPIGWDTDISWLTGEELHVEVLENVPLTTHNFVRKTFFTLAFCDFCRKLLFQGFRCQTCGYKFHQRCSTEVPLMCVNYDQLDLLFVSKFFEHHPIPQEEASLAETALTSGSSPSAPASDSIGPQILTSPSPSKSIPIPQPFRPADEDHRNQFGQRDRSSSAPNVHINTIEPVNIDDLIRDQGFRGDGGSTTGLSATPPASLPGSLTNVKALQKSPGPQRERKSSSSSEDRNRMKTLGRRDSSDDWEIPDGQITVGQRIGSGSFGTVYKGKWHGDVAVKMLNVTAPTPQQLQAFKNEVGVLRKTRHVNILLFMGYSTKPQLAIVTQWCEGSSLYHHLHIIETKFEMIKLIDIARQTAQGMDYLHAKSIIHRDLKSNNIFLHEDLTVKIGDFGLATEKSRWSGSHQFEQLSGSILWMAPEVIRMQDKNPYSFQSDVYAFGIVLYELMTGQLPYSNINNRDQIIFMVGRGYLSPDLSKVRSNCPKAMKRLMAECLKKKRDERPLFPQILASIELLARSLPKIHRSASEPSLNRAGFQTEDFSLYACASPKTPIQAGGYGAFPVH
row,Compound,IC50
1,"CCOC(=O)c1n[nH]c2cc(-c3cccc(NC(=O)Cc4ccc(OC)c(OC)c4)c3)ccc12 [Example 48, ethyl 6-(3-(2-(3,4-dimethoxyphenyl)acetamido)phenyl)-1H-indazole-3-carboxylate]",< 10 µM
2,"CCOC(=O)c1n[nH]c2cc(-c3cccc(NC(=O)Nc4cccc(Cl)c4Cl)c3)ccc12 [Example 54, ethyl 6-(3-(3-(2,3-dichlorophenyl)ureido)phenyl)-1H-indazole-3-carboxylate]",< 10 µM

# Further lines, results first:
row,IC50,Compound
1,< 10 µM,"CCOC(=O)c1n[nH]c2cc(-c3ccc(NC(=O)c4cnn(-c5ccc(OC)cc5)c4C(F)(F)F)cc3)ccc12 [Example 8, ethyl 6-(4-(1-(4-methoxyphenyl)-5-(trifluoromethyl)-1H-pyrazole-4-carboxamido)phenyl)-1H-indazole-3-carboxylate]"
2,< 10 µM,"CCOC(=O)c1n[nH]c2cc(-c3ccc(NC(=O)c4csc(-c5ccncc5)n4)cc3)ccc12 [Example 17, ethyl 6-(4-(2-(pyridin-4-yl)thiazole-4-carboxamido)phenyl)-1H-indazole-3-carboxylate]"
3,< 10 µM,"CCOC(=O)c1n[nH]c2cc(-c3ccc(NC(=O)Nc4ccc(Cl)c(C(F)(F)F)c4)cc3)ccc12 [Example 21, ethyl 6-(4-(3-(4-chloro-3-(trifluoromethyl)phenyl)ureido)phenyl)-1H-indazole-3-carboxylate]"
4,< 10 µM,"CNC(=O)c1n[nH]c2cc(-c3ccc(NC(=O)c4cccc(C(F)(F)F)c4)cc3)ccc12 [Example 24, N-methyl-6-(4-(3-(trifluoromethyl)benzamido)phenyl)-1H-indazole-3-carboxamide]"
5,< 10 µM,"O=C(Nc1cccc(-c2ccc3c(C(=O)NCCN4CCOCC4)n[nH]c3c2)c1)c1cccc(C(F)(F)F)c1 [Example 50, N-(2-morpholinoethyl)-6-(3-(3-(trifluoromethyl)benzamido)phenyl)-1H-indazole-3-carboxamide]"

# Tested on: A375P cells
# Experiment: Anti-proliferative activity on A375P cell line (MTT assay)
# Assay type: cell-based
# Conditions: A375P human melanoma cell line
# Experimental: A375P cells were purchased from American Type Culture Collection (ATCC, Rockville, Md., US) and maintained in DMEM medium (Welgene, Daegu, Korea) supplemented with 10% FBS (Welgene) and 1% penicillin/streptomycin (Welgene) in a humidified atmosphere with 5% CO2 at 37° C. The A375P cells were taken from culture substrate with 0.05% trypsin-0.02% EDTA and plated at a density of 5×10^3 cells/well in 96 well plates and then incubated at 37° C. for 24 h in a humidified atmosphere with 5% CO2 prior to treatment of various concentration (three fold serial dilution, 12 points) of test compounds. The A357P cell viability was assessed by the conventional 3-(4,5-dimethylthiazol-2-yl)-2,5-diphenyltetrazolium bromide (MTT) reduction assay. MTT assays were carried out with CellTiter 96 (Promega) according to the manufacturer's instructions.
# After 1 day, 0.5 μl the representative compounds of the examples were added thereto. The representative compounds of the examples were prepared by three fold serial dilution of 10 mM stock solution in DMSO, 12 point (final conc. DMSO 0.5%). Then, 15 μl dye was added in each well. After 2 h, 100 μl stop solution was added each well. After 24 h, absorbance was measured. The absorbance at 590 nm was recorded using EnVision2103 (PerkinElmer; Boston, Mass., US). The IC50 value was calculated using GraphPad Prism 4.0 software.
row,Compound,GI50
1,"CCOC(=O)c1n[nH]c2cc(-c3cccc(NC(=O)Cc4ccc(OC)c(OC)c4)c3)ccc12 [Example 48, ethyl 6-(3-(2-(3,4-dimethoxyphenyl)acetamido)phenyl)-1H-indazole-3-carboxylate]",< 10 µM
2,"CCOC(=O)c1n[nH]c2cc(-c3cccc(NC(=O)Nc4cccc(Cl)c4Cl)c3)ccc12 [Example 54, ethyl 6-(3-(3-(2,3-dichlorophenyl)ureido)phenyl)-1H-indazole-3-carboxylate]",< 10 µM
3,"CCOC(=O)c1n[nH]c2cc(-c3cccc(NC(=O)Nc4ccc(Cl)c(Cl)c4)c3)ccc12 [Example 55, ethyl 6-(3-(3-(3,4-dichlorophenyl)ureido)phenyl)-1H-indazole-3-carboxylate]",< 10 µM
4,"COC(=O)c1n[nH]c2cc(-c3cccc(NC(=O)Nc4ccc(C)cc4C)c3)ccc12 [Example 56, methyl 6-(3-(3-(2,4-dimethylphenyl)ureido)phenyl)-1H-indazole-3-carboxylate]",< 10 µM
5,"O=C(Nc1cccc(-c2ccc3c(C(=O)NCCN4CCOCC4)n[nH]c3c2)c1)c1cc(N2CCOCC2)cc(C(F)(F)F)c1 [Example 59, 6-(3-(3-morpholino-5-(trifluoromethyl)benzamido)phenyl)-N-(2-morpholinoethyl)-1H-indazole-3-carboxamide]",< 10 µM
6,"O=C(Nc1cccc(-c2ccc3c(C(=O)NCCN4CCOCC4)n[nH]c3c2)c1)Nc1cccc(Cl)c1Cl [Example 60, 6-(3-(3-(2,3-dichlorophenyl)ureido)phenyl)-N-(2-morpholinoethyl)-1H-indazole-3-carboxamide]",< 10 µM
7,"Cc1ccc(NC(=O)Nc2ccc(Cl)c(C(F)(F)F)c2)cc1-c1ccc2c(C(=O)NCCN(C)C)n[nH]c2c1 [Example 65, 6-(5-(3-(4-chloro-3-(trifluoromethyl)phenyl)ureido)-2-methylphenyl)-N-(2-(dimethylamino)ethyl)-1H-indazole-3-carboxamide]",< 10 µM
8,"CCOC(=O)c1n[nH]c2cc(-c3cccc(NC(=O)Nc4ccc(CN5CCN(CC)CC5)c(C(F)(F)F)c4)c3)ccc12 [Example 69, ethyl 6-(3-(3-(4-((4-ethylpiperazin-1-yl)methyl)-3-(trifluoromethyl)phenyl)ureido)phenyl)-1H-indazole-3-carboxylate]",< 10 µM
9,"COC(=O)c1n[nH]c2cc(-c3cccc(NC(=O)Nc4ccc(N5CCN(C)CC5)c(C(F)(F)F)c4)c3)ccc12 [Example 70, methyl 6-(3-(3-(4-(4-methylpiperazin-1-yl)-3-(trifluoromethyl)phenyl)ureido)phenyl)-1H-indazole-3-carboxylate]",< 10 µM
10,"CCOC(=O)c1n[nH]c2cc(-c3cc(NC(=O)Nc4ccc(N5CCN(C)CC5)c(C(F)(F)F)c4)ccc3C)ccc12 [Example 71, ethyl 6-(2-methyl-5-(3-(4-(4-methylpiperazin-1-yl)-3-(trifluoromethyl)phenyl)ureido)phenyl)-1H-indazole-3-carboxylate]",< 10 µM
11,"O=C(Nc1cccc(-c2ccc3c(C(=O)NCCN4CCOCC4)n[nH]c3c2)c1)c1cc(N2CCC(O)CC2)cc(C(F)(F)F)c1 [Example 77, 6-(3-(3-(4-hydroxypiperidin-1-yl)-5-(trifluoromethyl)benzamido)phenyl)-N-(2-morpholinoethyl)-1H-indazole-3-carboxamide]",< 10 µM

# More lines, now with the values ahead:
row,GI50,Compound
1,< 10 µM,"CCOC(=O)c1n[nH]c2cc(-c3ccc(NC(=O)c4cnn(-c5ccc(OC)cc5)c4C(F)(F)F)cc3)ccc12 [Example 8, ethyl 6-(4-(1-(4-methoxyphenyl)-5-(trifluoromethyl)-1H-pyrazole-4-carboxamido)phenyl)-1H-indazole-3-carboxylate]"
2,< 10 µM,"CCOC(=O)c1n[nH]c2cc(-c3ccc(NC(=O)Nc4ccc(Cl)c(C(F)(F)F)c4)cc3)ccc12 [Example 21, ethyl 6-(4-(3-(4-chloro-3-(trifluoromethyl)phenyl)ureido)phenyl)-1H-indazole-3-carboxylate]"
3,< 10 µM,"CNC(=O)c1n[nH]c2cc(-c3ccc(NC(=O)c4cccc(C(F)(F)F)c4)cc3)ccc12 [Example 24, N-methyl-6-(4-(3-(trifluoromethyl)benzamido)phenyl)-1H-indazole-3-carboxamide]"
4,< 10 µM,"CCNC(=O)c1n[nH]c2cc(-c3cccc(NC(=O)Nc4cccc(Cl)c4Cl)c3)ccc12 [Example 61, 6-(3-(3-(2,3-dichlorophenyl)ureido)phenyl)-N-ethyl-1H-indazole-3-carboxamide]"
5,< 10 µM,"CCNC(=O)c1n[nH]c2cc(-c3cccc(NC(=O)Nc4ccc(Cl)c(Cl)c4)c3)ccc12 [Example 62, 6-(3-(3-(3,4-dichlorophenyl)ureido)phenyl)-N-ethyl-1H-indazole-3-carboxamide]"
6,< 10 µM,"CCNC(=O)c1n[nH]c2cc(-c3cccc(NC(=O)Nc4ccc(C)cc4C)c3)ccc12 [Example 63, 6-(3-(3-(2,4-dimethylphenyl)ureido)phenyl)-N-ethyl-1H-indazole-3-carboxamide]"
7,< 10 µM,"Cc1ccc(NC(=O)Nc2ccc(Cl)c(C(F)(F)F)c2)cc1-c1ccc2c(C(=O)NC3CC3)n[nH]c2c1 [Example 66, 6-(5-(3-(4-chloro-3-(trifluoromethyl)phenyl)ureido)-2-methylphenyl)-N-cyclopropyl-1H-indazole-3-carboxamide]"
8,< 10 µM,"Cc1ccc(NC(=O)c2cccc(C(F)(F)F)c2)cc1-c1ccc2c(C(=O)NCCN3CCOCC3)n[nH]c2c1 [Example 67, 6-(2-methyl-5-(3-(trifluoromethyl)benzamido)phenyl)-N-(2-morpholinoethyl)-1H-indazole-3-carboxamide]"
9,< 10 µM,"CCOC(=O)c1n[nH]c2cc(-c3cccc(NS(=O)(=O)c4cccc(C(F)(F)F)c4)c3)ccc12 [Example 68, ethyl 6-(3-(3-(trifluoromethyl)phenylsulfonamido)phenyl)-1H-indazole-3-carboxylate]"
10,< 10 µM,"O=C(Nc1ccc(-c2ccc3[nH]nc(C(=O)NCCN4CCOCC4)c3c2)cc1)Nc1ccc(Cl)c(C(F)(F)F)c1 [Example 72, 5-(4-(3-(4-chloro-3-(trifluoromethyl)phenyl)ureido)phenyl)-N-(2-morpholinoethyl)-1H-indazole-3-carboxamide]"
11,< 10 µM,"CNC(=O)c1n[nH]c2cc(-c3cc(NC(=O)c4cc(-n5cnc(C)c5)cc(C(F)(F)F)c4)ccc3C)ccc12 [Example 73, N-methyl-6-(2-methyl-5-(3-(4-methyl-1H-imidazol-1-yl)-5-(trifluoromethyl)benzamido)phenyl)-1H-indazole-3-carboxamide]"
12,< 10 µM,"CNC(=O)c1n[nH]c2cc(-c3cc(NC(=O)Nc4cc(-n5cnc(C)c5)cc(C(F)(F)F)c4)ccc3C)ccc12 [Example 75, N-methyl-6-(2-methyl-5-(3-(3-(4-methyl-1H-imidazol-1-yl)-5-(trifluoromethyl)phenyl)ureido)phenyl)-1H-indazole-3-carboxamide]"
13,< 10 µM,"CCOC(=O)c1n[nH]c2cc(-c3cccc(NC(=O)c4cc(N5CCC(O)CC5)cc(C(F)(F)F)c4)c3)ccc12 [Example 76, ethyl 6-(3-(3-(4-hydroxypiperidin-1-yl)-5-(trifluoromethyl)benzamido)phenyl)-1H-indazole-3-carboxylate]"
14,< 10 µM,"COC(=O)c1n[nH]c2cc(-c3cccc(NC(=O)c4ccc(OC5CCN(C)CC5)c(C(F)(F)F)c4)c3)ccc12 [Example 78, methyl 6-(3-(4-(1-methylpiperidin-4-yloxy)-3-(trifluoromethyl)benzamido)phenyl)-1H-indazole-3-carboxylate]"
